In one assay the target is T1, αLβ2/ICAM-1 (Homo sapiens, UniProt P05107+P20701).
T1 construct: The Jurkat (VCAM-1 assays) and HSB (ICAM-1 assays) cell lines were obtained from American Type Culture Collection; endogenous in cells; host or cells: HSB (ATCC)
Kind of assay: Static cell adhesion assay, HSB cells on ICAM-1 (LFA-1; LAD). Particulars: RFU of compound / RFU of THI0349, both at the same concentration. Format: cell-based. The method in brief:
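HSB cells were labeled with calcein-AM for 30 minutes, washed, resuspended in binding buffer (PBS with 2 mM MgCl2, 5 mM EGTA, 50% FBS) and plated at 2×10^5 cells/well in triplicate onto 96-well plates coated overnight at 4° C with ICAM-1 (5 μg/mL in 50 μL TBS) and blocked with 2% BSA. Compounds were tested in 1% DMSO. After 30 minutes at 37° C and three washes, adherent cells were lysed and fluorescence was read; results are compound RFU divided by THI0349 RFU.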

Another assay concerns the target T2, α4β1/VCAM-1 (Homo sapiens, UniProt P05556+P13612).
T2 construct: The Jurkat (VCAM-1 assays) and HSB (ICAM-1 assays) cell lines were obtained from American Type Culture Collection; endogenous in cells; host or cells: Jurkat (ATCC)
As to the kind of experiment: Static cell adhesion assay, Jurkat cells on VCAM-1 (VLA-4 agonist activity). The conditions noted are these: EC50 relative to THI0349 (average 11 uM) run on the same plate; Jurkat cells, 50% FBS. It counts as cell-based. Put shortly: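 Calcein-labelled Jurkat cells (2×10^5/well) were added to wells coated with a sub-optimal level of human VCAM-1 (0.5 μg/mL) in PBS, 1 mM MgCl2, 50% FBS with compound in 1% DMSO. After 30 min at 37° C. and washing, adherent-cell fluorescence was read. EC50 was the concentration giving 50% of maximal response.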

T2 sequence (P13612 34-1032): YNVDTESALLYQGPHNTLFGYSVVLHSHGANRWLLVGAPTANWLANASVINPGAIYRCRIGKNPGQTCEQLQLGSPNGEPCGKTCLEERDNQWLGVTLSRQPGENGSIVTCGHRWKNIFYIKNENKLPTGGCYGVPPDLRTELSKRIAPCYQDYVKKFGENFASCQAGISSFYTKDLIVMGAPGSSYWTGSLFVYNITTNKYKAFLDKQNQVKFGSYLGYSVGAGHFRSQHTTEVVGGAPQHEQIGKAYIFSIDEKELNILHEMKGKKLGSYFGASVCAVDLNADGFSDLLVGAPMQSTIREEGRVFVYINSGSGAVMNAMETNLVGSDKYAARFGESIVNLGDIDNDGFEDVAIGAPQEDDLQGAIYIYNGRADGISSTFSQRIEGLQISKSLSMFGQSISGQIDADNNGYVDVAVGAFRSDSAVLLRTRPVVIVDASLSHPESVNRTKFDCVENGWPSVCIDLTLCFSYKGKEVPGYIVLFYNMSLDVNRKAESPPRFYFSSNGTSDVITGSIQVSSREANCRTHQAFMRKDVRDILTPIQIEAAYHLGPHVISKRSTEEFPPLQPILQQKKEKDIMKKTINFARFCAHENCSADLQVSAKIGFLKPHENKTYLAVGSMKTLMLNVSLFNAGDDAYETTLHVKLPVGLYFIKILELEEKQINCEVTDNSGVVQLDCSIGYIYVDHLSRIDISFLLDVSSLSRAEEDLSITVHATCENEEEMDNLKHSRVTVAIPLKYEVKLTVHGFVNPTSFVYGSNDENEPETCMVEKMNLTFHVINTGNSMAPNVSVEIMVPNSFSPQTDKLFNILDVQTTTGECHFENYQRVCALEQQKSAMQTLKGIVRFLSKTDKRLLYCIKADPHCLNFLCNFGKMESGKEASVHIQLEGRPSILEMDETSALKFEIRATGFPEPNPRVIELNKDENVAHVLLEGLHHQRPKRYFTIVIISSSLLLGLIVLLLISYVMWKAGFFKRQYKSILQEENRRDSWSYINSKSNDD
T2 sequence (P05556 21-798): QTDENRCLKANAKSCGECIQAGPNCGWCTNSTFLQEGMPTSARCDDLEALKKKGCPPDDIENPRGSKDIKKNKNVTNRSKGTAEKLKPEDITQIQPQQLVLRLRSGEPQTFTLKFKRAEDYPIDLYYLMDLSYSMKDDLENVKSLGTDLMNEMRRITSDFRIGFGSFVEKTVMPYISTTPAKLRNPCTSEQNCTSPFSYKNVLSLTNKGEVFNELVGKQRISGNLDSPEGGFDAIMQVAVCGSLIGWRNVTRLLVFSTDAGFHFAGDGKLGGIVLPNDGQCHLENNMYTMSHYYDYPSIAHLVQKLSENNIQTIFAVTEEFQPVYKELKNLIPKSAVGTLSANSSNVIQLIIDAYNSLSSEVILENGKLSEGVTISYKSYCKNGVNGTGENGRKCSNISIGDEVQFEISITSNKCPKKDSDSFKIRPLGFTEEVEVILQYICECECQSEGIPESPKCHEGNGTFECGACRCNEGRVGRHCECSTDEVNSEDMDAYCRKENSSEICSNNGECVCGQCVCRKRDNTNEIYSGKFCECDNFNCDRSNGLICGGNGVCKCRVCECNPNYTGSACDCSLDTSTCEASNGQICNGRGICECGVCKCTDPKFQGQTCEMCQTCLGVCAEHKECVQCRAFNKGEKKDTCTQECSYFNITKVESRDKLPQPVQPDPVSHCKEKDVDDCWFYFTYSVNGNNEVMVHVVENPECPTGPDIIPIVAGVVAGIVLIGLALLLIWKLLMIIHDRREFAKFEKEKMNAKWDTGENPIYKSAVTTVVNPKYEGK
T1 sequence (P20701 26-1170): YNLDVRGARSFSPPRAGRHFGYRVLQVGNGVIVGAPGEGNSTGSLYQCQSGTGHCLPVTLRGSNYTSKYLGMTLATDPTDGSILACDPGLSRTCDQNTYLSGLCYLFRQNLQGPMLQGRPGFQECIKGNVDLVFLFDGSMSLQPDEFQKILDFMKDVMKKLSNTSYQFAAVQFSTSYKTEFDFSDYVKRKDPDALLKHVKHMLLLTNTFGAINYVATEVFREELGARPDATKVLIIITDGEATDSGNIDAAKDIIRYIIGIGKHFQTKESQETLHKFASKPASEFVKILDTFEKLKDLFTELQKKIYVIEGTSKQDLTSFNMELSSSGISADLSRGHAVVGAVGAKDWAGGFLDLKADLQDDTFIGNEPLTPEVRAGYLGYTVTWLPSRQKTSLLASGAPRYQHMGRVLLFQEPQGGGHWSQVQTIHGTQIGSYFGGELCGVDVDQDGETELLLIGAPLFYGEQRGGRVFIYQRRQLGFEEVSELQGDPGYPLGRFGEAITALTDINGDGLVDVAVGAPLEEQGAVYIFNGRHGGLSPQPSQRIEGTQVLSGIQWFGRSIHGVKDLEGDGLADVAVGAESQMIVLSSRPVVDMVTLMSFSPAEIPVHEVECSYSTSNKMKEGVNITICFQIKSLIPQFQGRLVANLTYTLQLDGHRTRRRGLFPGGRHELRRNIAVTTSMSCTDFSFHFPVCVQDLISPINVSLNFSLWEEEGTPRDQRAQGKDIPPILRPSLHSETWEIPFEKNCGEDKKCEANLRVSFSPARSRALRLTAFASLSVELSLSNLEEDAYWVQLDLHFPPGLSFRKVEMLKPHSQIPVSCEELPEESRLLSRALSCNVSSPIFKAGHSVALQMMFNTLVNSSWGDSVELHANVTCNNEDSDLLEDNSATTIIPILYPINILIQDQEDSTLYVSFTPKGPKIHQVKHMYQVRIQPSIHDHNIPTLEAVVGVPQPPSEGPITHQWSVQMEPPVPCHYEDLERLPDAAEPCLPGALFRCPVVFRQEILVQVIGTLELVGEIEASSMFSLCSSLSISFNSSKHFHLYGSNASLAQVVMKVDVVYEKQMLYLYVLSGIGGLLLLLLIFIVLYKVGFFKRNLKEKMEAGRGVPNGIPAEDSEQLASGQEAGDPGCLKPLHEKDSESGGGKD
T1 sequence (P05107 23-769): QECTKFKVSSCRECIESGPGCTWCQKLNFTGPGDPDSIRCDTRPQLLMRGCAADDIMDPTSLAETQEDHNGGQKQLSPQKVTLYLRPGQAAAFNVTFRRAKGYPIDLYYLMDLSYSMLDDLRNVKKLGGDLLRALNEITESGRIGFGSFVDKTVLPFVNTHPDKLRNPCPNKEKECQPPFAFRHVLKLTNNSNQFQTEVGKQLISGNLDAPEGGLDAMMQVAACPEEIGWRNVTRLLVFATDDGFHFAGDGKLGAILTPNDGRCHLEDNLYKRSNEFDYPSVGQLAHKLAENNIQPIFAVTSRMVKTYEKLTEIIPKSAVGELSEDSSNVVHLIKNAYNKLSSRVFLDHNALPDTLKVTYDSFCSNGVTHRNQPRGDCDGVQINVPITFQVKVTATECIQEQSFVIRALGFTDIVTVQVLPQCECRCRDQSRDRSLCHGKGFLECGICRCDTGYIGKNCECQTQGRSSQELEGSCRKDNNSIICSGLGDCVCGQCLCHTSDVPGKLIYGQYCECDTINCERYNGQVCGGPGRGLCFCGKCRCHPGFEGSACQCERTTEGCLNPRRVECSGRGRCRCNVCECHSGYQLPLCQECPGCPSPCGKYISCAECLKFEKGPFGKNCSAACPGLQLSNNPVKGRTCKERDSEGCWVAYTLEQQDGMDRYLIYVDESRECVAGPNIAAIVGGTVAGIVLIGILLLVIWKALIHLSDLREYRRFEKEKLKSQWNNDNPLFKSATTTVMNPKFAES

On to `COc1cccc(COc2cc(C)n(N(Cc3cccc(OC)c3)Cc3cccc(OC)c3)c(=O)c2)c1` [Compound 127, 1-(bis(3-methoxybenzyl)amino)-4-((3-methoxybenzyl)oxy)-6-methylpyridin-2(1H)-one], for which, on αLβ2/ICAM-1, the “LAD Raw Fluorescence Units against LFA-1; Dose 3 µM; Ratio of raw counts Compound/THI0349” value came out at 0.75. Also, the “Group against VCAM” value at α4β1/VCAM-1 is “II (Group II is more than twice that of THI0349 but less than five times THI0349's EC50)”.

Turning to `COc1cccc(CN(Cc2cccc(OC)c2)c2nc(COCCOCc3ccccc3C)cs2)c1` [Compound 60, N,N-bis(3-methoxybenzyl)-4-((2-((2-methylbenzyl)oxy)ethoxy)methyl)thiazol-2-amine], on αLβ2/ICAM-1, the “LAD Raw Fluorescence Units against LFA-1; Dose 3 µM; Ratio of raw counts Compound/THI0349” value is recorded as 0.92. Also, the “Group against VCAM” value on α4β1/VCAM-1 was “I (Group I maintains at least the same potency or better up to more than twice that of the EC50 of THI0349 ran on the same plate)”.

Turning to `COc1cccc(CN(Cc2ccc3[nH]ncc3c2)c2nc(CN3CCOCC3)cs2)c1` [Compound 77, N-((1H-indazol-5-yl)methyl)-N-(3-methoxybenzyl)-4-(morpholinomethyl)thiazol-2-amine], the “LAD Raw Fluorescence Units against LFA-1; Dose 3 µM; Ratio of raw counts Compound/THI0349” value on αLβ2/ICAM-1 stood at 0.34. The “Group against VCAM” value at α4β1/VCAM-1 is “II (Group II is more than twice that of THI0349 but less than five times THI0349's EC50)”.

On to `COc1cccc(CN(Cc2cccc(OC)c2)c2nc(COCCOc3cccc(OC)c3)cs2)c1` [Compound 47, N,N-bis(3-methoxybenzyl)-4-((2-(3-methoxyphenoxy)ethoxy)methyl)thiazol-2-amine], for which the “LAD Raw Fluorescence Units against LFA-1; Dose 3 µM; Ratio of raw counts Compound/THI0349” value at αLβ2/ICAM-1 was determined as 0.7. In addition, the “Group against VCAM” value on α4β1/VCAM-1 is reported as “I (Group I maintains at least the same potency or better up to more than twice that of the EC50 of THI0349 ran on the same plate)”.

As to `COc1ccc(CCCNC(=O)c2csc(N(Cc3cccc(OC)c3)Cc3cccc(OC)c3)n2)cc1` [Compound 23, 2-(bis(3-methoxybenzyl)amino)-N-(3-(4-methoxyphenyl)propyl)thiazole-4-carboxamide], the “LAD Raw Fluorescence Units against LFA-1; Dose 3 µM; Ratio of raw counts Compound/THI0349” value on αLβ2/ICAM-1 is recorded as 0.85. Moreover, the “Group against VCAM” value on α4β1/VCAM-1 is “I (Group I maintains at least the same potency or better up to more than twice that of the EC50 of THI0349 ran on the same plate)”.

The values are drawn from patent publication US20240360113A1, “AMINOARYL-INTEGRIN AGONISTS COMPOUNDS” (Texas Heart Institute, priority 2021, published 2024).
